One test concerns HeLa. Nature of the test: Cytotoxicity against human HeLa cells by MTT assay. The test is classed as functional, cell-based.
The target of test [1] is T1, Heat shock protein HSP90 (Homo sapiens, UniProt P07900+P08238). Nature of the test: Inhibition of Hsp90 (unknown origin). The test is classed as protein assay.
Test [2] can be described thus: Cytotoxicity against human 95-D cells by MTT assay. The test is classed as functional, cell-based.
Test [3] deals with A549. The test can be described thus: Cytotoxicity against human A549 cells by MTT assay. The test is classed as functional, cell-based.
The test system of another test is MDA-MB-231. Nature of the test: Cytotoxicity against human MDA-MB-231 cells by MTT assay. The test is classed as functional, cell-based.
The test system of another test is ES-2. The test can be described thus: Cytotoxicity against human ES2 cells by MTT assay. The test is classed as functional, cell-based.
The next test has as its system MCF7. Nature of the test: Cytotoxicity against human MCF7 cells by MTT assay. The test is classed as functional, cell-based.
Test [4] relates to A549. Nature of the test: Induction of cell cycle arrest in human A549 cells assessed as accumulation at G1 phase at 200 nM incubated for 48 hrs by flow cytometry (reference value: 61.70 %). The test is classed as functional.
Test [5] deals with A549. The test can be described thus: Induction of cell cycle arrest in human A549 cells assessed as accumulation at G1 phase at 50 nM incubated for 48 hrs by flow cytometry (reference value: 61.70 %). The test is classed as functional.
Test [6] relates to A549. Nature of the test: Induction of apoptosis in human A549 cells assessed as late apoptotic cells at 50 nM incubated for 48 hrs by annexin V-FITC/7-AAD staining based flow cytometry (reference value: 0.64 %). The test is classed as functional.
Test [7] relates to A549. The test can be described thus: Induction of apoptosis in human A549 cells assessed as late apoptotic cells at 200 nM incubated for 48 hrs by annexin V-FITC/7-AAD staining based flow cytometry (reference value: 0.64 %). The test is classed as functional.
The test system of test [8] is A549. Nature of the test: Induction of cell cycle arrest in human A549 cells assessed as accumulation at G2/G1 phase at 200 nM incubated for 48 hrs by flow cytometry (reference value: 2 %). The test is classed as functional.
In test [9] the test system is A549. Nature of the test: Induction of cell cycle arrest in human A549 cells assessed as accumulation at G2 phase at 200 nM incubated for 48 hrs by flow cytometry (reference value: 2.53 %). The test is classed as functional.
In test [10] the test system is A549. Nature of the test: Induction of apoptosis in human A549 cells assessed as viable cells at 50 nM incubated for 48 hrs by annexin V-FITC/7-AAD staining based flow cytometry (reference value: 96.1 %). The test is classed as functional. The note with it: read-out: Activity.
The test system of test [11] is A549. Nature of the test: Induction of cell cycle arrest in human A549 cells assessed as accumulation at S phase at 50 nM incubated for 48 hrs by flow cytometry (reference value: 35.77 %). The test is classed as functional.
The subject of test [12] is A549. Nature of the test: Induction of cell cycle arrest in human A549 cells assessed as accumulation at S phase at 200 nM incubated for 48 hrs by flow cytometry (reference value: 35.77 %). The test is classed as functional.
Test [13] has as its system A549. Nature of the test: Induction of cell cycle arrest in human A549 cells assessed as accumulation at G2 phase at 50 nM incubated for 48 hrs by flow cytometry (reference value: 2.53 %). The test is classed as functional.
Test [14] concerns A549. Nature of the test: Induction of cell cycle arrest in human A549 cells assessed as accumulation at G2/G1 phase at 50 nM incubated for 48 hrs by flow cytometry (reference value: 2 %). The test is classed as functional.
Test [15] concerns A549. The test can be described thus: Induction of apoptosis in human A549 cells assessed as early apoptotic cells at 200 nM incubated for 48 hrs by annexin V-FITC/7-AAD staining based flow cytometry (reference value: 0.32 %). The test is classed as functional.
For test [16], the system named is A549. Nature of the test: Induction of apoptosis in human A549 cells assessed as early apoptotic cells at 50 nM incubated for 48 hrs by annexin V-FITC/7-AAD staining based flow cytometry (reference value: 0.32 %). The test is classed as functional.
For test [17], the system named is A549. Nature of the test: Induction of apoptosis in human A549 cells assessed as viable cells at 200 nM incubated for 48 hrs by annexin V-FITC/7-AAD staining based flow cytometry (reference value: 96.1 %). The test is classed as functional. The note with it: read-out: Activity.
The test system of test [18] is A549. The test can be described thus: Induction of apoptosis in human A549 cells assessed as necrotic cells at 50 nM incubated for 48 hrs by annexin V-FITC/7-AAD staining based flow cytometry (reference value: 0.92 %). The test is classed as functional.
Test [19] deals with A549. The test can be described thus: Induction of apoptosis in human A549 cells assessed as necrotic cells at 200 nM incubated for 48 hrs by annexin V-FITC/7-AAD staining based flow cytometry (reference value: 0.92 %). The test is classed as functional.
In test [20] the test system is A549. The test can be described thus: Induction of cell cycle arrest in human A549 cells assessed as accumulation at G2 phase at 10 nM incubated for 48 hrs by flow cytometry (reference value: 2.53 %). The test is classed as functional.
Test [21] deals with A549. Nature of the test: Anti-migration activity in human A549 cells at 0.3 to 3 nM incubated for 48 hrs by scratch wound healing assay. As to conditions: dose 0.3-3 nM. The test is classed as functional, cell-based.
The test system of test [22] is A549. Nature of the test: Inhibition of colony formation in human A549 cells. The test is classed as functional, cell-based. As to conditions: dose 10-20 nM.
In test [23] the test system is A549. The test can be described thus: Induction of cell cycle arrest in human A549 cells assessed as accumulation at G2/G1 phase at 10 nM incubated for 48 hrs by flow cytometry (reference value: 2 %). The test is classed as functional.
The target of test [24] is T1, Heat shock protein HSP90. Nature of the test: Inhibition of Hsp90 in human A549 cells assessed as upregulation of Hsp70 level at 25 to 100 nM by Western blot analysis. The test is classed as cell-based. The note with it: dose 25-100 nM.
The target of test [25] is T1, Heat shock protein HSP90. Nature of the test: Inhibition of Hsp90 in human A549 cells assessed as downregulation of CDK4 level by Western blot analysis. The test is classed as cell-based. The note with it: dose 25-100 nM.
In test [26] the test system is A549. Nature of the test: Induction of cell cycle arrest in human A549 cells assessed as accumulation at G1 phase at 10 nM incubated for 48 hrs by flow cytometry (reference value: 61.70 %). The test is classed as functional.
In test [27] the test system is A549. Nature of the test: Induction of cell cycle arrest in human A549 cells assessed as accumulation at S phase at 10 nM incubated for 48 hrs by flow cytometry (reference value: 35.77 %). The test is classed as functional.
The test system of test [28] is A549. The test can be described thus: Induction of apoptosis in human A549 cells assessed as viable cells at 10 nM incubated for 48 hrs by annexin V-FITC/7-AAD staining based flow cytometry (reference value: 96.1 %). As to conditions: read-out: Activity. The test is classed as functional.
Test [29] relates to A549. The test can be described thus: Induction of apoptosis in human A549 cells assessed as late apoptotic cells at 10 nM incubated for 48 hrs by annexin V-FITC/7-AAD staining based flow cytometry (reference value: 0.64 %). The test is classed as functional.
Test [30] concerns A549. The test can be described thus: Induction of apoptosis in human A549 cells assessed as early apoptotic cells at 10 nM incubated for 48 hrs by annexin V-FITC/7-AAD staining based flow cytometry (reference value: 0.32 %). The test is classed as functional.
The test system of test [31] is A549. The test can be described thus: Induction of apoptosis in human A549 cells assessed as necrotic cells at 10 nM incubated for 48 hrs by annexin V-FITC/7-AAD staining based flow cytometry (reference value: 0.92 %). The test is classed as functional.
Test [32] concerns the target T1, Heat shock protein HSP90. The test can be described thus: Inhibition of Hsp90 in human A549 cells assessed as downregulation of HER2 level by Western blot analysis. The test is classed as cell-based. As to conditions: dose 25-100 nM.

This is an account of results in ChEMBL document CHEMBL5321257, “Development of VER-50589 analogs as novel Hsp90 inhibitors” (Bioorg Med Chem Lett, 2023).

Where “and” joins values, the source holds several entries; their conditions need not be identical. Identical values can stand only once. Calls of active or inactive are those of the source. No cut-off for these calls is given here.

Take `CCNC(=O)c1noc(-c2cc(C(C)C)c(O)cc2O)c1-c1ccc(P(C)(C)=O)cc1`: the IC50 stood at 210 nM in the test with HeLa; 171 nM against Heat shock protein HSP90 [1]; 676 nM in [2]; 730 nM in the test on A549 [3]; 214 nM in the test with MDA-MB-231; 156 nM in the test on ES-2. In the test with MCF7, the IC50 is 230 nM.
Consider `CCNC(=O)c1noc(-c2cc(C(C)C)c(O)cc2O)c1-c1ccc([N+](=O)[O-])cc1`, for which the IC50 in the test on HeLa came to 19 nM; against Heat shock protein HSP90 [1] it was 15 nM; in test [2], 2.91 nM; in the test with A549 [3], 16.2 nM; with MDA-MB-231, 5.26 nM; in the test on ES-2 it was 12.4 nM. In addition, the IC50 in the test with MCF7 amounted to 2.89 nM.
In the case of `COC1=C2C[C@@H](C)C[C@H](OC)[C@H](O)[C@@H](C)/C=C(\C)[C@H](OC(N)=O)[C@@H](OC)/C=C\C=C(/C)C(=O)NC(=CC1=O)C2=O` [GELDANAMYCIN], the Activity in the test with A549 [4] is recorded as 68.97%; in the test on A549 [5] it was 60.64%; with A549 [6], 2.58%; in the test with A549 [7], 3.77%; with A549 [8] it was 2%; with A549 [9] it was 9.03%. Further, the Activity with A549 [11] is given as 35.64%; in the test with A549 [12] it was 22%; in the test on A549 [13], 3.72%; in the test on A549 [14], 2%; in the test on A549 [15], 3.26%; in the test on A549 [16] it was 1.78%. Also, the Activity is recorded as 2.31% in the test on A549 [18] and 2.38% with A549 [19]. Further, in the test with A549 [10], the viability at 0.05 µM turned out to be 93.3%. Besides, in the test with A549 [17], the viability at 0.2 µM amounted to 90.6%.
Regarding `CCNC(=O)c1noc(-c2cc(Cl)c(O)cc2O)c1-c1ccc(OC)cc1`, the half-inhibitory concentration (IC50) with HeLa was found to be 219 nM; with A549 [3], 223 nM; with MDA-MB-231 it was 75.8 nM; in the test with ES-2, 50.4 nM; in the test with MCF7, 69.6 nM.
For `CCNC(=O)c1noc(-c2cc(C(C)C)c(O)cc2O)c1-c1ccc(S(C)(=O)=O)cc1`, the Activity in the test on A549 [4] is 78.26%; with A549 [20], 3.19%; in the test with A549 [23], 2%; in the test with A549 [5], 70.94%; in the test on A549 [6], 3.1%; in the test on A549 [7] (48 h, 0.2 µM), 2.74% and 8.59%. For the same compound, the Activity in the test with A549 [8] is listed as 2%; in the test with A549 [26], 55.38%; in the test on A549 [27], 41.43%; in the test on A549 [9], 14.76%; in the test with A549 [29], 1.15%; in the test on A549 [11], 15.68%. The Activity in the test on A549 [12] came out at 6.98%; with A549 [30] it was 2.74%; in the test on A549 [13] it was 13.38%; in the test with A549 [14] it was 2%; in the test with A549 [15], 5.98%; in the test with A549 [16], 1.7%. The Activity in the test with A549 [31] turned out to be 0.59%; in the test on A549 [18], 2.24%; with A549 [19], 2.94%. Moreover, the IC50 in the test with HeLa is 2 nM; at Heat shock protein HSP90 [1], 9 nM; in test [2], 1.69 nM; with A549 [3] it was 8.65 nM; in the test with MDA-MB-231 it was 2.81 nM; with ES-2 it was 8.6 nM. The midpoint of inhibition in the test with MCF7, the IC50, lay at 1.35 nM. Further, the result with A549 [21] was Active. The inhibition entry in the test on A549 [22], on Heat shock protein HSP90 [25] and at Heat shock protein HSP90 [32] was “Dose-Dependent Effect” each time. Besides, at Heat shock protein HSP90 [24], the inhibition result is “Active”. In the test with A549 [28], the viability at 0.01 µM was determined as 95.5%. Moreover, in the test with A549 [10], the viability at 0.05 µM is 93%. Moreover, the viability at 0.2 µM in the test with A549 [17] was found to be 82.5%.
